Measurements reported in patent US10851075B2, “Stat3 pathway inhibitors and cancer stem cell inhibitors” (Sumitomo Dainippon Pharma Oncology, Inc., priority 2007, dated 2020).
Entries after “also recorded” stand apart in the source; their conditions may differ. Like-named read-outs stand apart in the source and are kept apart here.

Tests used:
A549 cells = assay: MTT cell viability, A549; type: cell-based; details: Homo sapiens; A549, Lung; MTT at 24 hours following compound treatment; Table 3
From the text: (§1) Cell Culture: HeLa, DU145, H1299, DLD1, SW480, A549, MCF7, LN18, HCT116, HepG2, Paca2, Panel, LNcap, FaDu, HT29, and PC3 cells (ATCC, Manassas, Va.) were maintained in Dulbecco's Modified Eagle Medium (DMEM) (Invitrogen, Carlsbad, Calif.) supplemented with 10% fetal bovine serum (MS) (Gemini Bio-Products, West Sacramento, Calif.) and 5% penicillin/streptomycin/amphotercin B (Invitrogen).
(§2) Cell Viability Determination: For 3-(4,5 dimethylthiazol-2-yl)-2,5-diphenyltetrazolium (MTT) (Sigma-Aldrich, St. Louis, Mo.) analysis, cells were plated in 96 well plates at 10,000 cells per well. 24 hours after plating, compound was added to cells at indicated doses. 22 hours following compound addition, MTT was added to each well (0.5 mg/ml, final concentration) and plates were incubated for an additional 2 hours at 37° C., Medium was then aspirated and the formazan product was solubilized in 100 μl of isopropyl alcohol. The absorbance of each well was measured at 570 nm using a microplate reader.
(§3) Identification of compounds that are apoptotic to a broad spectrum of cancer cells in vitro. Cells plated in 96 well plates and treated with indicated compounds were subjected to MTT analysis at 24 hours following compound treatment to determine cell viability.

H1299 cells = assay: MTT cell viability, H1299; type: cell-based; details: Homo sapiens, NCI-H1299, MTT at 24 hours
From the text: as §1, §2, §3

MCF7 cells = assay: MTT cell viability, MCF7; type: cell-based; details: Homo sapiens; MCF7, Breast; MTT at 24 hours; Table 3
From the text: as §1, §2, §3

HeLa cells = assay: MTT cell viability, HeLa; type: cell-based; details: Homo sapiens, MTT at 24 hours
From the text: as §1, §2, §3

DLD1 cells = assay: MTT cell viability, DLD1; type: cell-based; details: Homo sapiens, DLD-1; DLD1, Colon; MTT at 24 hours; Table 3
From the text: as §1, §2, §3

SW480 cells = assay: MTT cell viability, SW480; type: cell-based; details: Homo sapiens; SW480, Colon; MTT at 24 hours; Table 3
From the text: as §1, §2, §3

HCT116 cells = assay: MTT cell viability, HCT116; type: cell-based; details: Homo sapiens, HCT-116; HCT116, Colon; MTT at 24 hours; Table 3
From the text: as §1, §2, §3

HT29 cells = assay: MTT cell viability, HT29; type: cell-based; details: Homo sapiens, HT-29; HT29, Colon; MTT at 24 hours; Table 3
From the text: as §1, §2, §3

HepG2 cells = assay: MTT cell viability, HepG2; type: cell-based; details: Homo sapiens; HepG2, Liver; MTT at 24 hours; Table 3
From the text: as §1, §2, §3

Paca2 cells = assay: MTT cell viability, Paca2; type: cell-based; details: PaCa-2; Paca2, Pancreas; MTT at 24 hours; Table 3
From the text: as §1, §2, §3

Panc1 cells = assay: MTT cell viability, Panc1; type: cell-based; details: Homo sapiens, PANC-1; Panc1, Pancreas; MTT at 24 hours; Table 3
From the text: as §1, §2, §3

DU145 cells = assay: MTT cell viability, DU145; type: cell-based; details: Homo sapiens, DU-145, MTT at 24 hours
From the text: as §1, §2, §3

PC3 cells = assay: MTT cell viability, PC3; type: cell-based; details: Homo sapiens, PC-3; PC3, Prostate; MTT at 24 hours; Table 3
From the text: as §1, §2, §3

LNCap cells = assay: MTT cell viability, LNCap; type: cell-based; details: Homo sapiens, Prostate, MTT at 24 hours, Table 3
From the text: as §1, §2, §3

FaDu cells = assay: MTT cell viability, FaDu; type: cell-based; details: Homo sapiens, MTT at 24 hours
From the text: as §1, §2, §3

[1] = target: T1, Stat3 DNA-binding activity (Homo sapiens, UniProt P40763); assay: Stat3 DNA binding assay (EMSA), HeLa nuclear extract; type: biochemical; details: for inhibition % 1 × MTT IC50: compound at 1 × MTT IC50, untreated Stat3 retarded band set as 100; for inhibition % 3 × MTT IC50: compound at 3 × MTT IC50, untreated Stat3 retarded band set as 100
T1 construct: endogenous in cells; host or cells: HeLa cells (nuclear extract)
Protocol: STAT3 DNA Binding Assay: Electrophoretic mobility shift assay (EMSA) was performed as described by the manufacturer (Li-Cor Biosciences, Lincoln, Nebr.). Briefly, nuclear extracts were made from HeLa cells using the NucBuster Protein Extraction Kit as described by the manufacturer (EMD Biosciences, San Diego, Calif.). 5 μg of nuclear extract was pre-incubated with the indicated dose of indicated compound for 30 minutes prior to a 15-minute incubation with the IR700-labeled consensus Stat3 oligonucleotide. Samples were then electrophoresed on a polyacrylamide gel and directly scanned using the Odyssey infrared imaging system (Li-Cor Biosciences). For the enzyme-linked immunosorbent assay (ELISA), 5 μg of nuclear extract was preincubated with indicated concentration of indicated compound for 30 minutes prior to the addition of biotinylated oligo (5′-Biotin-[…]-3′). Stat3-DNA complexes were then captured on streptavidin coated 96 well plates (Pierce, Rockford, Ill.). Bound complexes were then incubated with Stat3 polyclonal antibody (Santa Cruz Biotechnology, Santa Cruz, Calif.) followed by anti-rabbit HRP conjugated secondary antibody (GE Healthcare, Pittsburgh, Pa.). Bound antibody was then visualized by addition of TMB substrate (Pierce) and absorbance measured at 450 nm.
Inhibition of Stat3 DNA-binding activity. Nuclear extracts from HeLa cells, which contain constitutively activated Stat3 as detected by phoshporylation at the tyrosine 705 residue, were used to perform Stat3 EMSAs to monitor Stat3 DNA binding activity. Nuclear extracts were incubated with indicated compound prior to incubation with IR700-labeled Stat3 consensus oligonucleotide. Binding of Stat3 to the oligonucleotide was monitored by gel electrophoresis and detection using a LiCor Odyssey infrared scanner.
To calculate the inhibition %, the density of the untreated Stat3 retarded band (control) was set as 100 and the inhibition % was the difference between the control and the relative DNA binding activity of the drug-treated samples.

SW480 Hoechst SP cells = assay: Anti-CSC MTT assay, SW480 Hoechst side population (SP) cells; type: cell-based; details: Homo sapiens, 48 h
Protocol: as §2
(§4) Hoechst Side Population: To identify and isolate side population (SP) and non-SP fractions, SW480 cells were removed from the culture dish with trypsin and EDTA, pelleted by centrifugation, washed with phosphate-buffered saline (PBS), and resuspended at 37° C. in Dulbecco's modified Eagle's medium (DMEM) containing 2% FBS and 1 rnM HEPES. The cells were then labeled with Hoechst 33342 (Invitrogen) at a concentration of 5 μg/mL. The labeled cells were incubated for 120 minutes at 37° C., either alone or with 50 μM verapamil (Sigma-Aldrich, St. Louis). After staining, the cells were suspended in Hanks' balanced saline solution (MISS; Invitrogen) containing 2% FBS and 1 mM HEPES, passed a through 40 μm mesh filter, and maintained at 4° C. until flow cytometry analysis. The Hoechst dye was excited at 350 nm, and its fluorescence was measured at two wavelengths using a 450 DF10 (450/20 nm band-pass filter) and a 675LP (675 nm long-pass edge filter) optical filter. The gating on forward and side scatter was not stringent, and only debris was excluded.
(§5) In order to test compounds for anti-CSC activity, freshly isolated CSCs (SW480 Hoechst SP cells or CD44^high FaDu cells) were exposed to a dose range (30-0.117 μM) of compound for 48 h before examining cell viability by MTT assay. IC50s were estimated by plotting the percentage of surviving cells. As shown in Table 7 and Table 8, the compounds of present invention can target cancer stem cells.

SW480 NSP cells = assay: Anti-CSC MTT assay, SW480 non-SP (NSP) cells; type: cell-based; details: Homo sapiens, 48 h
Protocol: as §2, §4, §5

[2] = system: Stat3 transcription activity; assay: Stat3-luciferase (Stat3-Luc) reporter assay in HeLa cells, OSM stimulated; type: cell-based; details: Homo sapiens, compound 30 minutes before 25 ng/ml oncostatin M, 6 hours, read-out: IC50 in Stat3-Luc assays
Protocol: Luciferase Reporter Assay: HeLa Cells were co-transfected with Stat3-luciferase (Stat3-Luc) reporter vector (Panomics, Fremont, Calif.) and Renilla luciferase (Promega, Madison, Wis.) using Lipofectamine 2000 as described by the manufacturer (Invitrogen). Following transfection, cells were maintained in medium containing 0.5% FBS for 24 hours. Cells were then treated with the indicated compound for 30 minutes prior to the addition of 25 ng/ml oncostatin M (OSM) (R&D Systems, Minneapolis, Minn.) to the medium. 6 hours following OSM addition, cells were harvested and levels of firefly and renilla luciferase were measured using the Dual-Glo Luciferase Assay System as described by the manufacturer (Promega).
Inhibition of Stat3 transcription activity. Compounds were tested for their ability to inhibit Stat3 transcription activation activity in cells using a Stat3-luciferase (Stat3-luc) reporter construct. Cells transfected with Stat3-luc were cultured in reduced serum medium prior to addition of indicated compound for 30 minutes. Cells were then stimulated with 25 ng/ml oncostatin (OSM) for 6 hours followed by detection of Stat3-luc reporter activity.

[3] = H1299, Lung, Table 3, read-out: IC50
[4] = H1299, Table 4, read-out: IC50 (μM) H1299
[5] = HeLa, Cervix, Table 3, read-out: IC50
[6] = Hela, Table 4, read-out: IC50 (μM) Hela
[7] = DU145, Prostate, Table 3, read-out: IC50
[8] = DU145, Table 4, read-out: IC50 (μM) DU145
[9] = Table 4, read-out: IC50 (μM) FaDu

T1 sequence (P40763 whole entry): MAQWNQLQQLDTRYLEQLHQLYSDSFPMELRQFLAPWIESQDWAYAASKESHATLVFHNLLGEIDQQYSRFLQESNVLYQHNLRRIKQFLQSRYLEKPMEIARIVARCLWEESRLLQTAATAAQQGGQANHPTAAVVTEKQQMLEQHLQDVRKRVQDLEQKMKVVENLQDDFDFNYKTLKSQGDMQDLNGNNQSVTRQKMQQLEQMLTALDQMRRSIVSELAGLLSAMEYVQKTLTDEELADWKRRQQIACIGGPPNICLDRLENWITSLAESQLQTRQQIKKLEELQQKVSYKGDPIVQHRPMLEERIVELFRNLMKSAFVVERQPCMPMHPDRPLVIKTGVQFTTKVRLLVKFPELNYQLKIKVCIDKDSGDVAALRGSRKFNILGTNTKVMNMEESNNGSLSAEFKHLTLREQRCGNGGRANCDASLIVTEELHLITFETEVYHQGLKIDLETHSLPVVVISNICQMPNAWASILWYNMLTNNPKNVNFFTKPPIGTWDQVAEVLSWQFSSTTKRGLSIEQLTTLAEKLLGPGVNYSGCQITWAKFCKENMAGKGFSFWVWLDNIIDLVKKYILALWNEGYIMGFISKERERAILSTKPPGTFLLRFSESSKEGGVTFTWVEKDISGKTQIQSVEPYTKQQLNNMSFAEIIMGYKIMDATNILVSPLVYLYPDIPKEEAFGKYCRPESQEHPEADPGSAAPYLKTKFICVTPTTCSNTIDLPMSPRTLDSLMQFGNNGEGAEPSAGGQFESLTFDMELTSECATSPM

Structure (SMILES) | IC50 (A549 cells) | IC50 (H1299 cells; [3]) | IC50 (H1299 cells; [4]) | IC50 (MCF7 cells) | IC50 (HeLa cells; [5]) | IC50 (HeLa cells; [6]) | IC50 (DLD1 cells) | IC50 (SW480 cells) | IC50 (HCT116 cells) | IC50 (HT29 cells) | IC50 (Paca2 cells) | IC50 (Panc1 cells) | IC50 (DU145 cells; [7]) | IC50 (DU145 cells; [8]) | IC50 (PC3 cells) | IC50 (FaDu cells; [9]) | IC50 (SW480 Hoechst SP cells) | IC50 (SW480 NSP cells) | inhibition % 1 × MTT IC50 [1] | inhibition % 3 × MTT IC50 [1] | also measured
CC(=O)c1cc2c(o1)C(=O)c1ccccc1C2=O [Compound 401] | 0.95 µM | 0.23 µM | 0.234 µM | 0.46 µM | 0.43 µM | 0.428 µM | 0.33 µM | 0.32 µM | 0.58 µM | 1.27 µM | 0.11 µM | 1.7 µM | 0.12 µM | 0.116 µM | 2.37 µM | 0.39 µM | 0.34 µM | 0.33 µM |  |  | IC50 (HepG2 cells): 0.25 µM; IC50 (LNCap cells): 0.63 µM; IC50 (FaDu cells; Head and Neck, Table 3, read-out: IC50): 0.39 µM; inhibition of Stat3 DNA binding (in words) ([1]; HeLa nuclear extract, FIG. 6A/6B): Dose dependent inhibition of Stat3 DNA binding; also recorded: inhibits Stat3 DNA-binding activity
O=C(c1ccccc1)c1cc2c(o1)C(=O)c1ccccc1C2=O [Compound 412] | 3.16 µM | 0.52 µM | 0.524 µM | 1.15 µM | 1.69 µM | 1.69 µM | 1.11 µM | 1.31 µM | 2.02 µM | 4.64 µM | 0.64 µM | 3.69 µM | 0.33 µM | 0.327 µM | 4.45 µM |  |  |  |  |  | IC50 [2]: ~0.75 µM
CC(=O)c1cc2c(o1)C(=O)c1cc(F)ccc1C2=O [Compound 418] | 1.06 µM | 0.34 µM | 0.317 µM | 0.46 µM | 0.8 µM | 0.488 µM | 0.64 µM | 0.76 µM | 0.61 µM | 1.83 µM | 0.21 µM | 1.54 µM | 0.18 µM | 0.164 µM | 3.04 µM |  | 0.34 µM | 0.33 µM | 39% | 63% | 
CC(=O)c1oc2c(c1CBr)C(=O)c1ccccc1C2=O [Compound 420] |  |  |  |  |  |  |  |  |  |  |  |  |  |  |  | 3.5 µM | 0.59 µM | 0.51 µM | 47% | 63% | 
